Entries after “also recorded” stand apart in the source; their conditions may differ.
What was measured:
Type in all cases: biochemical, barley
[1] = biological target: T1, ALV001 (Hordeum vulgare, UniProt P25250); experiment: Stabilization of ALV001* in early postprandial gastric fluid by reducing agents; parameters: ALV001*(the active form of ALV001) is produced upon proteolytic cleavage of ALV001; made in house
Procedure: (§1) Frozen human postprandial gastric fluids were thawed and centrifuged at 21,000 g for 5 minutes to pellet insoluble material, and the supernatant was used for this example. Between 50 and 200 μl of gastric fluid were added to the wells of a 96-well plate and incubated at 37° C. When antioxidants were added, they were added at this step. […] At the specified sampling time, a 1.6 μl sample of gastric fluid was diluted in assay buffer to give a final volume of 280 μl, and the concentration was measured by a chromogenic activity assay using Z-Phe-Arg-p-nitroaniline (pNA) as the substrate. The method is based on the ability of pNA to absorb at 410 nm when released from the substrate. ALV001 is the proenzyme or zymogen for Endoprotease B (Isoform 2) that cleaves the C-terminal side of the arginine in the sequence Phe-Arg. Enzymatic cleavage and subsequent release of pNA may be monitored by the change in absorbance at 410 nm. To determine the reaction rate, the absorbance at 410 nm was measured every 10 seconds for 1 minute. The slope of the regression line divided by the enzyme concentration was the reported enzyme activity.
Target sequence in this assay (P25250 134-373): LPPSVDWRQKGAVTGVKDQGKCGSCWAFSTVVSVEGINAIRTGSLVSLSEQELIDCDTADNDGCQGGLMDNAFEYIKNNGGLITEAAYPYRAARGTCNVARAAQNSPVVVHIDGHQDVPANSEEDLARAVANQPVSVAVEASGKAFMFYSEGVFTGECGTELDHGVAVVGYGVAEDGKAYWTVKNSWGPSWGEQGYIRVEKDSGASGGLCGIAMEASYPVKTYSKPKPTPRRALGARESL

[2] = biological target: T1, ALV001; experiment: Stabilization of ALV001 in ex vivo postprandial gastric fluid by added antioxidants/reducing/chelating agents (chromogenic activity); parameters: ALV001 is the proenzyme or zymogen for Endoprotease B (Isoform 2); made in house; details: for stability of ALV001 activity with agent added (FIG. 6): 15 minute postprandial gastric fluid, 37° C., 1.5-45 minutes; for stabilization (preservation of activity) of ALV001 in ex vivo gastric fluid: summary statement, concentration not given
Procedure: as §1
Target sequence in this assay (P25250 29-373 limits assumed): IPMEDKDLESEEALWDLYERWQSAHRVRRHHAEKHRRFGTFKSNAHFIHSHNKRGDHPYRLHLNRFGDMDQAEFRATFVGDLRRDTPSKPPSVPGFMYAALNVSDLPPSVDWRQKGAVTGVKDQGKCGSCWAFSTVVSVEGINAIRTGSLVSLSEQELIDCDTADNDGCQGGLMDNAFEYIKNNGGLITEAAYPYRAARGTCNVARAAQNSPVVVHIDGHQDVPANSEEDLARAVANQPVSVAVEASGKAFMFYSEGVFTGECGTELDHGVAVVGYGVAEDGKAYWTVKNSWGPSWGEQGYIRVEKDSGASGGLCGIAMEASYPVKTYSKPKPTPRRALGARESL
A control without MTG was also included.
Shown in FIG. 6, selected reducing agents were added at 5 mM to ex vivo postprandial gastric fluid that was obtained from a healthy volunteer 15 minutes after eating and was incubated at 37° C. The proenzyme ALV001 was added to the gastric fluid. Acetate buffer at pH 4.5 was used as a control, because ALV001 is fully activated under these conditions. Samples were taken to determine ALV001 activity after 1.5, 5, 10, 20, […].
Samples were taken at 1.5, 5, 10, 20, and 40 minutes.

[3] = biological target: T1, ALV001; experiment: Restoration of ALV001 activity by agents added after 15 minutes incubation in postprandial gastric fluid; parameters: ALV001 is the proenzyme or zymogen for Endoprotease B (Isoform 2); made in house; details: agent at 5 mM added after 15 minutes at 37° C. in postprandial gastric fluid; 1.5-40 minutes after addition
Procedure: ALV001 was added to postprandial gastric fluid and incubated for 15 minutes at 37° C. Reducing agents were added at 5 mM to the gastric fluid and then samples were taken to examine ALV001 activity at 1.5, 5, 10, 20, and 40 minutes after the addition of the reducing agents.
Target sequence in this assay (P25250 29-373 limits assumed): as above

[4] = biological target: T1, ALV001; experiment: Stabilization of ALV001 in ex vivo postprandial gastric fluid by added antioxidants/reducing/chelating agents (chromogenic activity); parameters: ALV001 is the proenzyme or zymogen for Endoprotease B (Isoform 2); made in house; details: for stability of ALV001 in postprandial gastric fluid (FIG. 7): agent at 0.5 mM; for stabilization of ALV001 (FIG. 11): ALV001 at 0.12 mg/ml, 1.5-40 minutes
Target sequence in this assay (P25250 29-373 limits assumed): as above

[5] = biological target: T1, ALV001; experiment: ALV001 activity under simulated postprandial gastric conditions with cysteine; parameters: ALV001 is the proenzyme or zymogen for Endoprotease B (Isoform 2); made in house; details: gluten-free meal chewed and spit into resting gastric fluid, ALV003 and varying levels of cysteine, simulated gastric acid secretion
Procedure: A gluten-free meal was chewed and spit into resting gastric fluid. ALV003 and varying levels of cysteine were added at time 0 and the stability of ALV001 activity was tested by monitoring chromogenic enzyme activity over time. Gastric acid secretion was simulated throughout the experiment.
A gluten-free meal was chewed and spit into resting gastric fluid. ALV003 and varying levels of cysteine were added at time 0, and the stability of ALV001 activity was measured by monitoring chromogenic enzyme activity over time. Gastric acid secretion was simulated throughout the experiment.
Target sequence in this assay (P25250 29-373 limits assumed): as above

[6] = biological target: T1, ALV001; experiment: ALV001 activity reconstituted in orange juice with or without sodium metabisulfite; parameters: ALV001 is the proenzyme or zymogen for Endoprotease B (Isoform 2); made in house; details: 3 mg/ml ALV001 in orange juice, 840 μM sodium metabisulfite
Procedure: 3 mg/ml ALV001 was reconstituted in orange juice with or without 840 μM sodium metabisulfite. Chromogenic enzyme activity was measured at the indicated timepoints to determine the relative amount of functional enzyme.
3 mg/ml ALV001 was reconstituted in orange juice with or without 840 μM sodium metabisulfite. Chromogenic enzyme activity was measured as described above, at the indicated timepoints, to determine the relative amount of functional enzyme, as shown in FIG. 13.
Target sequence in this assay (P25250 29-373 limits assumed): as above

[7] = biological target: T1, ALV001; experiment: Reversal of loss of enzyme activity: ALV003 pre-incubated in 15 minute postprandial gastric fluid, then MTG added; parameters: ALV001*(the active form of ALV001) is produced upon proteolytic cleavage of ALV001; made in house; details: 50 mM MTG, approximately 20 minutes after addition to pre-incubated ALV003 in 15 minute postprandial gastric fluid
Target sequence in this assay (P25250 134-373): as the sequence (P25250 134-373) above

Row | SMILES | stabilization of ALV001* in early postprandial gastric fluid [1] | stability of ALV001 activity with agent added (FIG. 6) ([2]; agent at 5 mM) | stabilization (preservation of activity) of ALV001 in ex vivo gastric fluid [2] | further results
1 | Cl.O=C(O)CCP(CCC(=O)O)CCC(=O)O [TCEP, tris(2-Carboxyethyl)phosphine hydrochloride] | demonstrated to stabilize ALV001* | – | – | –
2 | O=S([O-])[O-].[Na+].[Na+] [sodium sulfite] | demonstrated to stabilize ALV001* | most effective stabilization | particularly effective in stabilizing ALV001 | restoration of ALV001 enzyme activity [3]: partially restored the enzyme activity; concentration down to which the stabilizing effect persists ([4]; postprandial gastric fluid (FIG. 8)): 0.05 mM; stabilization of ALV001 (FIG. 8) ([4]; sodium sulfite time course, postprandial gastric fluid): particularly effective
3 | N[C@@H](CS)C(=O)O [L-cysteine] | demonstrated to stabilize ALV001* | Substantial improvements in stability | – | stability of ALV001 activity under simulated postprandial gastric conditions (FIG. 14) [5]: stabilizes ALV001 activity
4 | O=S([O-])([O-])=S.[Na+].[Na+] [sodium thiosulfate] | demonstrated to stabilize ALV001* | – | – | stability of ALV001 in postprandial gastric fluid (FIG. 7) [4]: demonstrated to improve the stability of ALV001
5 | O=C1O[C@H]([C@@H](O)CO)C(O)=C1O [ascorbic acid] | did not stabilize the enzyme | rapidly inactivated | did not stabilize | –
6 | OCC(O)CS (centres unmarked) [MTG, monothioglycerol] | – | – | – | loss of enzymatic activity of ALV001 (FIG. 4) ([4]; 50 mM MTG, 15 minute postprandial gastric fluid): no loss; rate of loss of enzymatic activity of ALV001 (FIG. 4) ([4]; MTG 0.01 to 50 mM, 15 minute postprandial gastric fluid): decreased with increasing MTG concentrations; restoration of enzymatic activity of ALV001* (FIG. 5) [7]: nearly full enzymatic activity was restored
7 | O[C@H](CS)[C@H](O)CS (racemic) [dithiothreitol] | demonstrated to stabilize ALV001* | – | – | –

Now from value to compound, other results behind:

Row | stabilization of ALV001* in early postprandial gastric fluid [1] | SMILES | stability of ALV001 activity with agent added (FIG. 6) ([2]; agent at 5 mM) | stabilization (preservation of activity) of ALV001 in ex vivo gastric fluid [2] | further results
8 | demonstrated to stabilize ALV001* | OCCS [2-mercaptoethanol] | – | – | –
9 | demonstrated to stabilize ALV001* | CC(=O)N[C@@H](CS)C(=O)O [N-acetylcysteine] | Substantial improvements in stability | – | restoration of ALV001 enzyme activity [3]: partially restored the enzyme activity
10 | did not stabilize the enzyme | CSCC[C@H](N)C(=O)O [L-methionine] | – | did not stabilize | –
11 | demonstrated to stabilize ALV001* | O=S([O-])S(=O)(=O)[O-].[Na+].[Na+] [sodium metabisulfite] | – | particularly effective in stabilizing ALV001 | stability of ALV001 activity in orange juice (FIG. 13) [6]: stabilizes ALV001 activity; also recorded: increased stability; stabilization of ALV001 (FIG. 11) ([4]; agent at 25 μM, postprandial gastric fluid): considerable stabilization; stability of ALV001 ([4]; agent at 50 μM): improved stability of ALV001; stabilization of ALV001 (FIG. 11) ([4]; agent at 50 μM, postprandial gastric fluid): best stabilization; stability of ALV001 in postprandial gastric fluid (FIG. 7) [4]: demonstrated to improve the stability of ALV001
12 | demonstrated to stabilize ALV001* | N[C@@H](CCS)C(=O)O [homocysteine] | – | – | –
13 | demonstrated to stabilize ALV001* | O=C(O)CCCC[C@@H]1CCSS1 (racemic) [lipoic acid] | – | – | stability of ALV001 in postprandial gastric fluid (FIG. 7) ([2]; agent at 5 mM): demonstrated to improve the stability of ALV001

From US8980254B2, “Formulation for oral administration of proteins” (Alvine Pharmaceuticals, Inc., priority 2008, dated 2015)
